Source: patent US20060014726A1, “Derivatives of cyclic1, 3- propanediol phosphate and their action in differentiation therapy” (priority 2002, published 2006)

How the values were obtained:
[1] = test system: progesterone receptor (PR) in MCF-7 cells; experiment: Western blot analysis of PR level in MCF-7 cells; assay type: cell-based, human; settings: MCF-7 cells, from 10 μM upwards
Method: In an analogous manner, a set of experiments was preformed with MCF-7 cells for determining the level of PR upon incubation with varying concentrations of 1,3-cPP for a period of up to 11 days. Similar to the augmentation observed for ER-α, an increase of up to 2.8 and 2.2 fold expression of the wild type PR (MW 98,000), was observed from 10 μM 1,3-cPP and upwards on days 8 and 11, respecively (FIGS. 3A-D).
Breast Cancer Cells. The human breast cancer MCF-7 cell line were obtained from Prof. Hadassa Degani, of Weizmann Institute of Science, Rehovot, Israel. The cells were grown as monolayers in high glucose DMEM supplemented with 6% fetal calf serum and combined antibiotics. Human breast cancer T47D cells, clones 8 (ER^loPR^lo) and 11 (ER^+PR^+) were obtained from Prof Iafa Keydar, Tel-Aviv university and were grown in DMEM supplemented with 10% fetakl calf serum antibiotics. K562 erythroleukemia cells were obtained from Dr. Alfa Peled of Weizmann Institute of Science, Rehovot, Israel. These cells were grown in RPMI 1640 containing 10% fetal calf serum and antibiotics. All lines were grown at 37° C. in the presence of 5% CO2. The absence of Mycoplasma contamination was monitored by a Mycotrim TC test (Irvine Scientific, Santa Ana, Calif.) carried out once every 3 months.
For ER-α protein analysis, MCF-7 and T47D cells were cultured in 60×15 mm petri dishes. From the second day of culture onward, the cells were treated with various concentrations of 1,3cPP for up to 14 days. At the end of the incubation period, the medium was aspirated and the cells were washed 3 times with cold (4° C.) PBS. […] The protein concentration in each sample (1.5-4 mg/ml) was determined using the Coomassie Protein Assay (Pierce, Rockford, Ill.) according to the manufacturer's instructions. […] Bound antibodies were detected by horseradish peroxidase-conjugated goat anti-rabbit IgG, (Transduction Laboratories, Lexington, Ky. using the ECL detection method. Band densities were quantified by densitometry (Biorad model GS-690 Imaging densitometer) using Molecular Analyst software.

Acute toxicity testing = assay type: in vivo; settings: CD-1 mice
Method: The acute toxicity of 1,3cPP was determined in CD-1 male and female mice, 8-12 weeks of age, via i.v., i.p. and p.o. routes of administration.

For `O=P1(O)OCCCO1` [1,3-cPP, 1,3-cyclic propanediol phosphate], the “increase in expression of the wild type PR (MW 98,000)” value ([1]; day 8) was “up to 2.8 fold”, the “increase in expression of the wild type PR (MW 98,000)” value ([1]; day 11) was ≤ 2.2 fold and the “acute 24 hr toxicity, pharmacotoxic effects” value (Acute toxicity testing; i.p., doses of 0.25-5.0 g/kg) was “no pharmacotoxic effects were observed”. For the same molecule, the “toxicity classification following conventional criteria” value (Acute toxicity testing; i.v., i.p. and p.o.) was “practically non-toxic substance”, the “acute toxicity, changes in body weight and behavior” value (Acute toxicity testing; i.v., up to 1 g/kg) was “no changes in body weight nor in behavior” and the “acute toxicity, changes in body weight and behavior” value (Acute toxicity testing; p.o., up to 10 g/kg) was “no changes in body weight nor in behavior”.
